According to patent US20120115149A1, “SEROTONIN TRANSPORTER GENE AND TREATMENT OF ALCOHOLISM” (University of Virginia Patent Foundation, priority 2009, published 2012):
Structures can show the parent of a compound that is named as a salt.

Assays:
[1] = cited from earlier work; for effect on binge eating, in words: human, in vivo
[2] = alcohol trials, naltrexone 50 mg/day; cited from earlier work
[3] = tested on: alcoholics; experiment: Double-blind placebo-controlled trial of ondansetron in alcoholics randomized by 5'-HTTLPR genotype: self-reported drinking; type: in vivo, human
Text: We randomized 283 alcoholics by genotype in the 5′-regulatory region of the 5-HTT gene (LL/LS/SS) in a controlled double-blind trial. […] We genotyped another functional single nucleotide polymorphism (T/G), rs1042173, in the 3′-untranslated region.
Participants. Details of the subject population were similar to those in a previously published study (22). Briefly, our 283 enrollees (73.7% male; 84.4% White, and 15.6% Hispanic) had alcohol dependence but no axis I diagnosis other than nicotine dependence according to the Diagnostic and Statistical Manual of Mental Disorders, 4th edition (23); were aged 20 to 78 years, and scored >8 on the Alcohol Use Disorders Identification Test (24), which assessed the severity of alcohol-related problems.
All subjects provided informed consent to participate.
Subjects were randomized using an urn (25) procedure after the screening visit to either treatment or placebo under each of three different genotypes (LL, LS, or SS alleles of the 5′-HTTLPR) strata. Further characterization of the cohort for rs1042173 of 3′-UTR alleles (i.e., TT/TG/GG) was done post-randomization.
Study procedures. Subjects were enrolled in the study whilst they were still drinking (i.e., without a period of abstinence). At enrollment, we collected self-reported drinking based on the timeline follow-back method over the past 90 days (26), genotyped, and collected white blood cells (WBCs) for expression studies.
From weeks 1 to 12, subjects received weekly assessment of drinking using the timeline follow-back method, adverse events using the Systematic Assessment for Treatment Emergent Events (28), alcohol withdrawal using the revised Clinical Institute Withdrawal Assessment for Alcohol scale (17), concomitant medication use, and pill count.
All subjects received weekly standardized, manual-driven (29, 30) cognitive behavioral therapy in groups of up to eight subjects as their psychosocial treatment. This comprised an integration of cognitive behavioral and social learning theory that enables alcoholic subjects to achieve and maintain abstinence by enhancing their ability to manage high-risk situations, which can trigger alcohol-seeking behavior (31, 32).
Genetics testing. DNA was extracted from the blood of each subject at baseline with a Gentra Puregene® kit (QIAGEN Inc., Valencia, Calif.). The 5′-HTTLPR L/S alleles were determined as described earlier (2, 33) with custom-made primers. The alleles of SNP rs1042173 were genotyped with pre-made TaqMan® genotyping assays (Applied Biosystems, Foster City, Calif.) as reported previously (10).

[4] = cited from earlier work
[5] = LL genotype, ondansetron (4 μg/kg twice daily, 11 weeks) vs. placebo, averaged across treatment
[6] = ondansetron LL vs. all other genotype and treatment groups combined
[7] = ondansetron LL/TT vs. all other genotype and treatment groups combined
[8] = within ondansetron recipients, LL vs. LS/SS

O=C1NC(=O)C(c2ccccc2)(c2ccccc2)N1 [phenyloin]
effect on binge eating, in words [1]: reduced binge eating

O=C1CC[C@@]2(O)[C@H]3Cc4ccc(O)c5c4[C@@]2(CCN3CC2CC2)[C@H]1O5 [naltrexone, 17-(Cyclopropylmethyl)-4,5a-epoxy-3,14-dihydroxymorphinan-6-one hydrochloride]
individuals unable to tolerate the dose [2]: about 15%

Cc1nccn1CC1CCc2c(c3ccccc3n2C)C1=O (stereo not drawn) [ondansetron, 9-methyl-3-[(2-methyl-1H-imidazol-1-yl)methyl]-1,2,3,9-tetrahydrocarbazol-4-one]
effect on binge eating, in words [1]: reduce binge eating | drinks/drinking day (DDD), difference [3, 5]: −1.62 | percentage of days abstinent (PDA), difference [3, 5]: 11.27% | response by age of onset, in words ([3]; LL or LL/TT genotype): responded to ondansetron irrespective of age of onset | effect on drinks/drinking day, in words ([3]; LL subjects, TT subjects): reduces drinks/drinking day | response to treatment by rs1042173 genotype, in words ([3]; alcohol-dependent subjects, TT vs. TG/GG genotype): respond better | reduction in severity of drinking by 5'-HTTLPR genotype, in words ([3]; alcoholics with LL genotype vs. LS/SS): significantly greater reduction in the severity of drinking | drinks/drinking day (DDD), difference [3, 6]: −1.45 | percentage of days abstinent (PDA), difference [3, 6]: 9.65% | drinks/drinking day (DDD), difference [3, 7]: −2.63 | percentage of days abstinent (PDA), difference [3, 7]: 16.99% | drinks/drinking day (DDD), difference [3, 8]: −1.53 | percentage of days abstinent (PDA), difference [3, 8]: 9.73%

CC1(C)O[C@@H]2[C@@H](CO[C@@]3(COS(N)(=O)=O)OC(C)(C)O[C@@H]23)O1 [topiramate, 2,3:4,5-Bis-O-(1-methylethylidene)-beta-D-fructopyranose sulfamate]
effect on appetite and weight, in words ([1]; controlled trials in patients with epilepsy): suppression of appetite and weight loss | cognitive impairment, individuals reporting ([4]; general population): 2.4% | occurrence rate of cognitive impairment ([4]; substance abuse field): about 18.7%
